Data published in patent US20260124173A1, “THERAPEUTIC ALKALOID COMPOUNDS” (Sensorium Therapeutics, Inc., priority 2023, published 2026).
pIC50: −log10 of the molar value. Like-named read-outs stand apart in the source and are kept apart here.

Key:
[1] = in vivo; cited from earlier work
SERT = target: T1, SERT (Homo sapiens, UniProt P31645); test: SERT inhibition assay (Neurotransmitter Transportation Fluorescence assay, stable 5 HTT cells); assay type: cell-based
T1 construct: expressed in transfected cells
T1 sequence (P31645 whole entry, species assumed): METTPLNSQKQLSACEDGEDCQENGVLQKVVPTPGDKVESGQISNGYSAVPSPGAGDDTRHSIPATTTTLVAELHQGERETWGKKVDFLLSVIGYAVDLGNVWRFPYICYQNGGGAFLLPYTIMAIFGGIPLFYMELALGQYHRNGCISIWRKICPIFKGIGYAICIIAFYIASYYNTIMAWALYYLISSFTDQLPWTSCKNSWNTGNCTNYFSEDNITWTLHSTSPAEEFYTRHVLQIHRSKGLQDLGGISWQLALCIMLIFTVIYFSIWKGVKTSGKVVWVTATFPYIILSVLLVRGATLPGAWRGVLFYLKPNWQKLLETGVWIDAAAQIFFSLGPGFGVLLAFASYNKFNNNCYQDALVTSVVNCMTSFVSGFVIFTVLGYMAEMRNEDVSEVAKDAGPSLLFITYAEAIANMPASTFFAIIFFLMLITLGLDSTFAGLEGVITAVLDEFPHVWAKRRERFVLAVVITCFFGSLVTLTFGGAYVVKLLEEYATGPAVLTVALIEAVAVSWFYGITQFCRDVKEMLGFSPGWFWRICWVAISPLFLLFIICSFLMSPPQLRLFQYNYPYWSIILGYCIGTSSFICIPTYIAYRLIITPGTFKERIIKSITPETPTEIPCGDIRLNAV
Procedure: SERT inhibition can be measured using a Neurotransmitter Transportation Fluorescence assay. Briefly, stable 5 HTT cells were prepared in a 384 microwell plate. Compounds were prepared in assay buffer (20 mM HEPES, 0.1% BSA). The compounds were added to the plated cells and incubated for 30 minutes at 37° C. 25 μL of dye solution (Molecular Devices Neurotransmitter Transporter Uptake Assay Kit) is added per well and incubated for 30 minutes at 37° C. The plates are then read on a plate reader.

[2] = Intestinal S9 metabolic stability, human; assay type: in vitro ADME
Procedure: (§1) A master solution was prepared according to the Table B2 below.
(§2) Add 222.5 μL of master solution and 25 μL of 10 mM NADPH solution to the incubation plates. Pre-warm for 10 min. The reaction was started with the addition of 2.5 μL of 100 μM control compound or test compound solutions. Verapamil, Midazolam and Testosterone were used as positive control in this study. The final concentration of control compounds and test compounds was 1 μM. Aliquots of 25 μL were taken from the reaction solution at 0.5, 5, 15, 30, 45 and 60 minutes. The reaction was stopped by the addition of 5 volumes of cold acetonitrile with IS (100 nM alprazolam, 200 nM caffeine and 100 nM tolbutamide). Samples were centrifuged at 3, 220 g for 30 minutes. Aliquot of 100 μL of the supernatant was mixed with 100 μL of ultra-pure H2O and then used for LC-MS/MS analysis.
(§3) All calculations were carried out using Microsoft Excel. Peak areas were determined from extracted ion chromatograms. The slope value, k, was determined by linear regression of the natural logarithm of the remaining percentage of the parent drug vs. incubation time curve. The in vitro half-life (in vitro t1/2) was determined from the slope value:
(§4) Conversion of the in vitro t1/2 (min) into the in vitro intrinsic clearance (in vitro CLint, in uL/min/mg protein) was done using the following equation (mean of duplicate determinations): […]
The metabolic stability of Compound 243 was tested in human, monkey, dog and rat (2 replicate measurement). For comparison, verapamil was tested in human and monkey (2 replicates), midazolam was tested in dog (2 replicates), and testosterone was tested in rat (2 replicates).

[3] = assay type: in vitro ADME, dog
Procedure: as §1, §2, §3, §4

[4] = Intestinal S9 metabolic stability, rat; assay type: in vitro ADME
Procedure: as §1, §2, §3, §4

Q: For COc1ccc([C@@]23CCC(=O)C[C@@H]2N(C)CC3)cc1OC [Compound 001, (−)-Mesembrine], which half-life in plasma [1] is on record?
A: less than 2 hours

Q: With COc1ccc([C@@]23CC=C(C)C[C@@H]2N(C)CC3)cc1OC [Compound 242, (3aS,7aS)-3a-(3,4-dimethoxyphenyl)-1,6-dimethyl-2,3,3a,4,7,7a-hexahydro-1H-indole] as the molecule, how does the pIC50 (SERT; Table B1) read?
A: > 7.30

Q: Which results are given for COc1ccc([C@@]23CCC(C)=C[C@@H]2N(C)CC3)cc1OC [Compound 243, (3aS,7aS)-3a-(3,4-dimethoxyphenyl)-1,6-dimethyl-2,3,3a,4,5,7a-hexahydro-1H-indole]?
A: pIC50 (SERT; Table B1): > 7.30; median half-life, times greater than verapamil [2]: 33 times; median CLint (micrograms/min/mg protein), times greater for verapamil than Compound 243 ([2]; human, 1 µM): more than 23 times; half-life at 1 µM ([2]; human, s9): > 24 h; median half-life, times greater than the half-life of midazolam [3]: more than 168 times; median CLint (micrograms/min/mg protein), times greater for midazolam than Compound 243 ([3]; dog, 1 µM): more than 164 times; median CLint (micrograms/min/mg protein), times greater for testosterone than Compound 243 ([4]; 1 µM): about 30 times; median half-life, times greater than the half-life of testosterone ([4]; Compound 243 versus testosterone): about 30 times

Q: With COc1ccc([C@@]23CC=C(C)C[C@@H]2N(C)CC3)cc1OC [drawing 203] as the molecule, how does the pIC50 (SERT) read?
A: > 7.30

Q: With COc1ccc([C@@]23CCC(C)=C[C@@H]2N(C)CC3)cc1OC [drawing 204] as the molecule, how does the pIC50 (SERT) read?
A: > 7.30

Q: With COc1ccc([C@@]23CCC(C)=C[C@@H]2N(C)CC3)cc1OC [drawing 205] as the molecule, how does the pIC50 (SERT) read?
A: > 7.30
